Patent US10806721B2, “Formulation for use in the treatment of uremic pruritus” (DRUG DELIVERY SOLUTIONS, priority 2016, dated 2020)

Tests used:
[1] = test system: reconstructed human epidermis (RHE); assay: Histological examination of reconstructed human epidermis exposed to urea (Example 3); assay type: cell-based
Protocol: (§1) To further investigate possible carbamylation in human skin in UP (Uremic Pruritus) the inventors conducted a series of studies in the reconstructed human epidermis (RHE) model. The 4 cm^2 large skin samples were delivered from Episkin® in 6 well plates each with a volume of 1 ml. The experiments were carried out in 18-25 days old skin samples. RHE is a standardized technology used to investigate metabolic, toxic and inflammatory reactions in the skin (13). The skin samples were developed from human epidermal stem cells. They were developed on a […] net with an underlying growth medium. The RHE contains all the different cell layers in the epidermis, including stratum corneum. The samples are kept at 37° C. in a 5% CO2 atmosphere. They are handled under sterile conditions. New growth medium is added daily. The 4 cm^2 large skin samples were ready for use after 18 days' development; a time span similar to the normal turnover of human skin.
(§2) 12 individual experiments were carried out including 2 controls. Growth media (1 ml) were replaced daily according to the standard protocol. 6 of the samples were harvested at day 3 and 6 at day 6 and immediately frozen at minus 80° C. until protein analysis. Parts of all samples were sent for histologic examination.
(§3) The following exposures (individual experiments), all from stratum corneum side of the skin sample, were made.
(§4) 2. Urea in an aqueous solution in the same amount—calculated as mg/cm^2 skin—, as in UP. This calculated amount corresponds to 0.3 mg/cm^2, based on calculation of the sum of the average serum levels of urea in uremic patients, urea from sweat, and contribution from active transport of urea into the cells in epidermis. The addition of urea is done by the addition of 200 μl of a solution of 6 mg urea/ml) to the surface of the skin samples.
(§5) 3. As under above item 2 but in double amount (0.6 mg/cm^2).
(§6) 4. As under above item 3 and added 200 μl of a 1% histidine solution.
(§7) 5. 5% commercially available urea cream dosed as intended human use
6. 10% commercially available urea cream dosed as intended human use […]

[2] = test system: reconstructed human epidermis (RHE); assay: ELISA of carbamoylated proteins in reconstructed human epidermis exposed to urea from the stratum corneum side (Example 3); assay type: cell-based; settings: for ELISA reading, carbamoylated proteins, Day 3: harvested day 3; for ELISA reading, carbamoylated proteins, Day 6: harvested day 6; for carbamylation of proteins (result in words): exposure on top of RHE skin samples, within 6 days
Protocol: as §1, §2, §3
1. Controls: Left untreated.
as §4, §5, §6, §7
6. 10% commercially available urea cream dosed as intended human use
The skin samples harvested at day 3 were exposed day 0 to 2-6 and day 1 to 2-4. (tabl. 1)
The skin samples is harvested at day 6 were exposed as above and further day 3 to 2-6. In agreement with Table 1 the aqueous urea solution was absorbed immediately through the skin samples. The two creams left a deposit on top of the skin and were therefore only applied twice; day 0 and day 3 (for the 6-day experiment). Daily exposures were abstained to minimize the risk of infection. […] Further the urea concentrations from experiments 2, 3 and 4 harvested day 6 may have been relatively low due to only one supplementary exposure day 3.
(§8) Protein analysis was made according to a previous developed method (14). Carbamoylated proteins from the skin samples were coated to ELISA wells and quantified using a using a primary polyclonal anti-homocitrullin antibody and a secondary labelled polyclonal detection antibody.

[3] = Degradation of histidine in the cream of Example 1 exposed to urea; assay type: physicochemical; settings: cream of Example 1 with 10 w/w % urea; six weeks at 40° C.
Protocol: The degradation process was followed over time and after six weeks at 40° C. only 20% histidine was left in the cream having 10 w/w % urea.

[4] = test system: Human Reconstructed Epidermis (RHE); assay: ELISA of carbamoylated proteins in RHE with urea in the growth medium (Example 4); assay type: cell-based
Text: as §8
The same method as described in example 3 was used. The studies were based on the use of the Human Reconstructed Epidermis (RHE) model purchased from Episkin®. Three experiments were made in duplicate including 2 controls. Growth media (1 ml) with and without additions (see below) were replaced daily accordingly to the standard protocol. In contrast to Example 3 the urea exposure was made by addition of urea to the growth medium. Experiment 1 corresponds to the two controls; experiment 2 was with growth medium with 4 mg/ml urea; experiment 3 was with growth medium with 4 mg/ml urea and with addition of 5 mg […] cream with 2% amino acids applied on top of RHE skin surface at Day 0 and Day 3. All 6 skin samples looked macroscopically healthy when they were harvested after 6 days. There were no signs of infection or necrosis. They were immediately frozen at minus 80° C. until protein analysis. Parts of all samples were sent for histological examination.
Protein carbamoylated was investigated using the same method as in Experiment 3.

[5] = 0.5% histidine added to urea conc. as in UP (high) 12 mg
[6] = Urea conc. as in UP (high) 12 mg, 0.6 mg/cm^2 on skin surface
[7] = Urea conc. as in UP (moderate) 6 mg, 0.3 mg/cm^2 on skin surface

With `N[C@@H](Cc1c[nH]cn1)C(=O)O` [histidine] the “effect on urea-induced edema and cell death (histology)” value ([1]; histidine added to urea 0.6 mg/cm^2, harvested both day 3 and day 6) was “can counteract this effect”, the “ELISA reading, carbamoylated proteins, Day 3” value (“ELISA reading … Day 3” for short) [2, 5] was 0.312 absorbance units and the “ELISA reading, carbamoylated proteins, Day 6” value (“ELISA reading … Day 6” below) [2, 5] was 0.321 absorbance units. The “carbamylation of proteins (result in words)” value [2] was “prevented this carbamylation” and the “histidine left in the cream” value [3] was 20%.

With `NC(N)=O` [Urea] the “histological changes (edema and disruptions in stratum corneum, premature cell death in stratum spinosum)” value ([1]; harvested day 3) was “significant changes”, the histological changes ([1]; harvested day 6) was “recovered to a certain extent” and the “ELISA reading … Day 3” value [2, 6] was 0.316 absorbance units. For the same molecule, the “ELISA reading … Day 6” value [2, 6] was 0.475 absorbance units, the “ELISA reading … Day 3” value [2, 7] was 0.377 absorbance units and the “ELISA reading … Day 6” value [2, 7] was 0.368 absorbance units. For the same molecule, the “carbamylation of proteins (result in words)” value [2] was “could be demonstrated”, the “Elisa reading, carbamoylated proteins, average of two experiments” value ([4]; GM + 4 mg urea/ml, harvested after 6 days) was 0.68 absorbance units and the “level of protein carbamylation (result in words)” value ([4]; growth medium with 4 mg/ml urea, 6 days) was “highest level of carbamylation”.
